Assay results reported in patent US20240182492A1, “AZAHETEROARYL COMPOUND, PREPARATION METHOD THEREFOR, AND APPLICATION THEREOF” (SHANGHAI BLUERAY BIOPHARMA CO., LTD., priority 2021, published 2024).

How the values were obtained:
[1] = tested on: B-cell non-Hodgkin lymphoma cells KARPAS-422; assay: Cell proliferation analysis, KARPAS-422, 13 days, CellTiter-Glo; assay type: cell-based, Human; conditions: Homo sapiens, KARPAS-422, 312 h, Karpas-422, 13 days
Experimental: Example 55: Cell Proliferation Analysis
Human B-cell non-Hodgkin lymphoma cells KARPAS-422 S were cultured in culture flasks using standard cell culture conditions. The culture medium contains 15% fetal bovine serum (FBS, Invitrogen, product number 10099-141), 1% penicillin/streptomycin solution (P/S) RPMI-1640 (Invitrogen, product number 11875), and the culture flask is placed and cultured in a sterile incubator at 37° C., 95% relative humidity, and 5% CO2. In order to detect the effect of PRC2 inhibitors on cell proliferation, cells in the exponential growth phase were seeded into 96-well plates (Corning, product number 3904) at a density of 1×10^4 cells/well, and 100 μL of medium was added to each well. Subsequently, the compounds disclosed herein at different concentrations were added to the wells seeded with cells (9 concentration gradients were set for each compound, and the highest detection concentration was 10 μM, 3-fold gradient dilution), and 2 repeats in parallel were set for each treatment concentration. The final concentration of DMSO is 0.5%. Then the number of surviving cells was counted with Vi-CELL (Beckman Coulter) every 3-4 days. The cells counted each time were seeded into a new 96-well plate at the same density (1×10^4 cells/well). The wells were supplemented with fresh medium to 100 μL, and different concentrations of the compound were added at the same time. The cells were cultured until the 13th day, on which 100 μL of CellTiter-Glo (CellTiter-GloCellTiter-GloCellTiter-GloCTG) (Promega, Product No. G7573) was added to each well. The plate was placed for 10-20 minutes in the dark at room temperature, and Molecular Devices and SpectraMax i3X were used to read the luminous signal. The data were fitted to a dose-response curve using GraphPad prisim5 and the IC50 values of the tested compounds were obtained.

[2] = molecular target: T1, EED protein (full-length, His6 tag) binding to H3K27me3 polypeptide (Homo sapiens, UniProt O75530); assay: AlphaScreen evaluation of blocking the binding of EED to H3K27Me3; conditions: EED / biotinylated H3K27me3 peptide competition
T1 construct: The full-length EED protein (441 amino acids) with His6 tag
T1 sequence (O75530 whole entry): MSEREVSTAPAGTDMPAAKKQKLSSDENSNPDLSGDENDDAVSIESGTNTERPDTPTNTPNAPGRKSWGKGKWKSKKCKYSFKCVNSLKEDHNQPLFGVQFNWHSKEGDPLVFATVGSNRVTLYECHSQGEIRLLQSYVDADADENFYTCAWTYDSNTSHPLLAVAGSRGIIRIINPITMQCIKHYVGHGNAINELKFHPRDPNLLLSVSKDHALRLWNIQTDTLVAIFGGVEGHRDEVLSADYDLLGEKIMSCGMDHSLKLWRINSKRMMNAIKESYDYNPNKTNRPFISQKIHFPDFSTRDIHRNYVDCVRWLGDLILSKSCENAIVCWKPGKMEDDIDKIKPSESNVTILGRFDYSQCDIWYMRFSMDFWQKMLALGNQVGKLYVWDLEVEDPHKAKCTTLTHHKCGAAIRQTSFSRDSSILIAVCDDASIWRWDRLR
Experimental: Example 53: Evaluation of the Effect of the Compound in Blocking the Binding of EED to H3K27Me3 by AlphaScreen (a-Screening) Method
First, compound solutions with different concentration gradients are prepared. Compound powder is dissolved in DMSO to form mother liquor. 1.5 μL of the compound mother liquor is taken to 198.5 μL reaction buffer (25 mM HEPES (pH 8.0), 50 mM NaCl, 0.015% Tween 20, 0.5% BSA) and the solution is mix uniformly, and then 3-fold gradient dilution is performed with the above buffer containing 0.75% DMSO. 9 different test concentrations are set for the same compound. 5 μL of compounds with different concentration gradients was taken to ProxiPlate-384 Plus, White detection plate (PerkinElmer, 6008280), and 2 parallel replicates are set for each concentration gradient.
Next, a binding blocking reaction is performed. The full-length EED protein (441 amino acids) with His6 tag is diluted to 60 nM with the above buffer, and the biotinylated polypeptide fragment H3K27me3 (amino acids 19-33) (Biotinylated-H3K27me3) is diluted to 75 nM with the same buffer. 5 μL of 75 nM peptide fragments and 5 μL of 60 nM protein are transferred to the testing wells containing the compound respectively. The testing plate is sealed with a film, and is incubated for 30 minutes at room temperature.
Finally, AlphaScreen method is used for detection. Before use, nickel chelate acceptor beads and streptavidin donor beads (Perkin Elmer, product number 6760619M) are mixed into the above reaction buffer at a ratio of 1:1, and then 5 μL of the above pre-mixed testing solution is added to each testing well. The final concentration of the donor beads and acceptor beads is 5 μg/mL. The testing plate is covered with tin foil and placed at room temperature in the dark for 1 hour. Signals are read using an AlphaScreen detector on a Spectra max i3. The AlphaScreen signal is normalized according to the readings obtained from the positive control (maximum signal control) and negative control (minimum signal control) to give the inhibition rate of different concentrations of the compound. After that, non-linear regression analysis was performed with GraphPad Prism 5, and dose-response equation Y=Bottom+(Top−Bottom)/(1+10^((Log IC50−X)*HillSlope)) is used to make an inhibition curve, obtaining the IC50 value of each compound. […]

[3] = tested on: trimethylation level of histone H3K27 in G401 cells; assay: ELISA (H3K27 trimethylation) analysis in G401 cells; assay type: cell-based; conditions: Homo sapiens, G-401, 72 h, H3K27me3 normalized by H3
Experimental: Example 54: ELISA (H3K27 Trimethylation) Analysis
Representative compounds of the present disclosure are diluted in DMSO with 3-fold gradient, and 10 concentration gradients are tested per compound. The maximum testing concentration is 10 μM. The compound is diluted 200-fold into G401 cells cultured in 96-well plates (the final concentration of DMSO is 0.5%). After the cells are cultured for 72 hours, the trimethylation level of histone H3K27 is detected by ELISA method.
Histone extraction: compound-treated cells in a 96-well plate are washed 3 times with 1×PBS (10×PBS buffer (80 g NaCl (Sigma, Product No. S3014), 2 g KCl (Sigma, Product No. 60128), 14.4 g Na2HAPO4 (Sigma, Product No. S5136) and 2.4 g KH2PO4 (Sigma, Product No. P9791) are added to 1 L water, pH to 7.4), and 100 μL of 0.4N HCl is added to each well. The 96-well plate is placed at 4° C. and gently shaken for 2 hours to lyse the cells. The cell lysate is then neutralized with 80 μL of neutralization buffer (0.5M disodium hydrogen phosphate, pH 12.5, 2.5 mM DTT; 1% cocktail (Sigma, Product No. P8340) (mixing the cell lysate and neutralization buffer thoroughly).
ELISA detection method: the cell lysates are transferred in parallel to two 384-well assay plates (PerkinElmer, OptiPlate-384HB, Product No. 6007290). One plate is used to detect the trimethylation level of H3K27, and the other plate is used to measure the level of H3. PBS is adjusted to a final volume of 50 μL/well. The wells are coated overnight at 4° C. On the next day, the solution in the wells was discarded. TBST buffer (1 xTBS (10×TBS: 24.2 g Tris (Sigma, Product No. T6066) and 80 g NaCl (Sigma, Product No. S3014) are added to 1 L water, and pH is adjusted to 7.6 with HCl) and 0.1% Tween-20) is used to wash it 5 times, and the water is dried on absorbent papers. 70 μL of blocking buffer (TBST, 5% BSA) is added to the coated reaction wells, and the wells are incubated for 1 hour at room temperature. The blocking buffer was discarded, and the primary antibody is added (30 μL/well). The required primary antibodies are diluted with blocking buffer, and the dilution ratios were as follows: anti-H3K27me3 antibody (Cell Signaling Technology, Product No. 9733), 1:2000 dilution; anti-H3 antibody (Cell Signaling Technology, Product No. 4499), 1:10000 dilution. After adding the primary antibody, the wells are incubated at room temperature for 1 hour. After washing with TBST for 5 times, the water are dried. The secondary antibody (30 μL/well) is added to each reaction well, and the wells are incubated at room temperature for 1 hour. Secondary antibody (anti-rabbit antibody (Jackson ImmunoResearch, Product No. 111-035-003)) is used after dilution 2000-fold in blocking buffer. After 1 hour, it is washed with TBST and dried. 30 μL of ECL substrate (Pierce, Product No. 34080) is added to each well and centrifuged for 30 seconds at 2000 rpm. Signal of each sample is detected using Molecular Devices, SpectraMax. Data processing: H3K27 methylation readings are first normalized by H3 signal. 0.500 DM8)-treated sample is used as a control, and the inhibition percentage of the compound is calculated. The data is fitted to a dose-response curve using the GraphPad prisim5 program, obtaining the IC50 values of the test compounds.

Row | SMILES | IC50 [1] | IC50 [2] | IC50 [3]
1 | CC(C)(O)Cc1ccc(-c2cnc(NCc3c(F)ccc4c3CCO4)n3cnnc23)c2ncnn12 [1-(8-(5-(((5-fluoro-2,3-dihydrobenzofuran-4-yl)methyl)amino)-[1,2,4]triazolo[4,3-c]pyrimidin-8-yl)-[1,2,4]triazolo[1,5-a]pyridin-5-yl)-2-methylpropan-2-ol] | 0.0102 µM | 0.0113 µM | 0.0032 µM
2 | CCC(O)c1ccc(-c2cnc(NCc3c(F)ccc4c3CCO4)n3cnnc23)c2ncnn12 (stereo not drawn) [1-(8-(5-(((5-fluoro-2,3-dihydrobenzofuran-4-yl)methyl)amino)-[1,2,4]triazolo[4,3-c]pyrimidin-8-yl)-[1,2,4]triazolo[1,5-a]pyridin-5-yl)propan-1-ol] | 0.0032 µM | 0.0065 µM | 0.0026 µM
3 | OC1(c2ccc(-c3cnc(NCc4c(F)ccc5c4CCO5)n4cnnc34)c3ncnn23)CC1 [1-[8-(5-{[(5-fluoro-2,3-dihydro-1-benzofuran-4-yl)methyl]amino]-[1,2,4]triazolo[4,3-c]pyrimidin-8-yl)-[1,2,4]triazol[1,5-a]pyridin-5-yl]cyclopropan-1-ol] | 0.0033 µM | 0.0047 µM | 0.0009 µM
4 | OC1(c2ccc(-c3cnc(NCc4c(F)ccc5c4CCO5)n4cnnc34)c3ncnn23)CCC1 [1-[8-(5-{[(5-fluoro-2,3-dihydro-1-benzofuran-4-yl)methyl]amino]-[1,2,4]triazolo[4,3-c]pyrimidin-8-yl)-[1,2,4]triazolo[1,5-a]pyridin-5-yl]cyclobutan-1-ol] | 0.0016 µM | 0.0055 µM | 0.0003 µM
5 | CC(O)(CF)c1ccc(-c2cnc(NCc3c(F)ccc4c3CCO4)n3cnnc23)c2ncnn12 (stereo not drawn) [1-fluoro-2-[8-(5-{[(5-fluoro-2,3-dihydro-1-benzofuran-4-yl)methyl]amino}-[1,2,4]triazolo[4,3-c]pyrimidin-8-yl)-[1,2,4]triazolo[1,5-a]pyridin-5-yl]propan-2-ol] | 0.0022 µM | 0.0043 µM | 0.0011 µM
6 | CC(C)(O)c1c(F)cc(-c2cnc(NCc3c(F)ccc4c3CCO4)n3cnnc23)c2ncnn12 [2-(6-fluoro-8-(5-(((5-fluoro-2,3-dihydrobenzofuran-4-yl)methyl)amino)-[1,2,4]triazolo[4,3-c]pyrimidin-8-yl)-[1,2,4]triazolo[1,5-a]pyridin-5-yl)propan-2-ol] | 0.0146 µM | 0.0057 µM | 0.0059 µM
7 | Cc1nc2c(-c3cnc(NCc4c(F)ccc5c4CCO5)n4cnnc34)cnc(C(C)(C)O)n2n1 [2-(8-(5-(((5-fluoro-2,3-dihydrobenzofuran-4-yl)methyl)amino)-[1,2,4]triazolo[4,3-c]pyrimidin-8-yl)-2-methyl-[1,2,4]triazolo[1,5-c]pyrimidin-5-yl)propan-2-ol] | 0.0065 µM | 0.0084 µM | 0.0006 µM
8 | Cc1cc(-c2cnc(NCc3c(F)ccc4c3CCO4)n3cnnc23)c2ncnn2c1C(C)(C)O [2-(8-(5-(((5-fluoro-2,3-dihydrobenzofuran-4-yl)methyl)amino)-[1,2,4]triazolo[4,3-c]pyrimidin-8-yl)-6-methyl-[1,2,4]triazolo[1,5-a]pyridin-5-yl)propan-2-ol] | 0.0087 µM | 0.0075 µM | 0.0024 µM
9 | CCC(C)(O)c1ccc(-c2cnc(NCc3c(F)ccc4c3CCO4)n3cnnc23)c2ncnn12 (stereo not drawn) [2-(8-(5-(((5-fluoro-2,3-dihydrobenzofuran-4-yl)methyl)amino)-[1,2,4]triazolo[4,3-c]pyrimidin-8-yl)-[1,2,4]triazolo[1,5-a]pyridin-5-yl)butan-2-ol] | 0.0052 µM | 0.0075 µM | 0.0021 µM
10 | CC(C)(O)c1ncc(-c2cnc(NCc3c(F)ccc4c3CCO4)n3cnnc23)c2ncnn12 [2-(8-(5-(((5-fluoro-2,3-dihydrobenzofuran-4-yl)methyl)amino)-[1,2,4]triazolo[4,3-c]pyrimidin-8-yl)-[1,2,4]triazolo[1,5-c]pyrimidin-5-yl)propan-2-ol] | 0.0066 µM | 0.0062 µM | 0.0028 µM
11 | CCC(O)(CC)c1ccc(-c2cnc(NCc3c(F)ccc4c3CCO4)n3cnnc23)c2ncnn12 [3-(8-(5-(((5-fluoro-2,3-dihydrobenzofuran-4-yl)methyl)amino)-[1,2,4]triazolo[4,3-c]pyrimidin-8-yl)-[1,2,4]triazolo[1,5-a]pyridin-5-yl)pentan-3-ol] | 0.0077 µM | 0.0035 µM | 0.0024 µM
